Assay results: paper PMC9481151, “Discovery of new symmetrical and asymmetrical nitrile-containing 1,4-dihydropyridine derivatives as dual kinases and P-glycoprotein inhibitors: synthesis, in vitro assays, and in silico studies” (Journal of Enzyme Inhibition and Medicinal Chemistry, 2022)

Tests used:
K-562 = test: NCI single dose (10 µM) SRB screen; assay type: cell-based, human; conditions: leukaemia, 48 h
MOLT-4 = test: NCI single dose (10 µM) SRB screen; assay type: cell-based, human; conditions: leukaemia, 48 h
SR = test: NCI single dose (10 µM) SRB screen; assay type: cell-based, human; conditions: leukaemia, 48 h
EKVX = test: NCI single dose (10 µM) SRB screen; assay type: cell-based, human; conditions: non-small cell lung cancer, 48 h
HOP-92 = test: NCI single dose (10 µM) SRB screen; assay type: cell-based, human; conditions: non-small cell lung cancer, 48 h
NCI-H226 = test: NCI single dose (10 µM) SRB screen; assay type: cell-based, human; conditions: non-small cell lung cancer, 48 h
NCI-H23 = test: NCI single dose (10 µM) SRB screen; assay type: cell-based, human; conditions: non-small cell lung cancer, 48 h
NCI-H322M = test: NCI single dose (10 µM) SRB screen; assay type: cell-based; conditions: non-small cell lung cancer, 48 h
NCI-H460 = test: NCI single dose (10 µM) SRB screen; assay type: cell-based, human; conditions: non-small cell lung cancer, 48 h
NCI-H522 = test: NCI single dose (10 µM) SRB screen; assay type: cell-based, human; conditions: non-small cell lung cancer, 48 h
COLO 205 = test: NCI single dose (10 µM) SRB screen; assay type: cell-based, human; conditions: colon cancer, 48 h
HCC-2998 = test: NCI single dose (10 µM) SRB screen; assay type: cell-based, human; conditions: colon cancer, 48 h
HCT-116 = test: NCI single dose (10 µM) SRB screen; assay type: cell-based, human; conditions: colon cancer, 48 h
HCT-15 = test: NCI single dose (10 µM) SRB screen; assay type: cell-based, human; conditions: colon cancer, 48 h
HT29 = test: NCI single dose (10 µM) SRB screen; assay type: cell-based, human; conditions: colon cancer, 48 h
KM12 = test: NCI single dose (10 µM) SRB screen; assay type: cell-based, human; conditions: colon cancer, 48 h
SW-620 = test: NCI single dose (10 µM) SRB screen; assay type: cell-based, human; conditions: colon cancer, 48 h
SF-268 = test: NCI single dose (10 µM) SRB screen; assay type: cell-based, human; conditions: CNS cancer, 48 h
SF-539 = test: NCI single dose (10 µM) SRB screen; assay type: cell-based, human; conditions: CNS cancer, 48 h
SNB-19 = test: NCI single dose (10 µM) SRB screen; assay type: cell-based, human; conditions: CNS cancer, 48 h
U251 = test: NCI single dose (10 µM) SRB screen; assay type: cell-based, human; conditions: CNS cancer, 48 h
LOX IMVI = test: NCI single dose (10 µM) SRB screen; assay type: cell-based, human; conditions: melanoma, 48 h
MALME-3M = test: NCI single dose (10 µM) SRB screen; assay type: cell-based, human; conditions: melanoma, 48 h
M14 = test: NCI single dose (10 µM) SRB screen; assay type: cell-based, human; conditions: melanoma, 48 h
SK-MEL-2 = test: NCI single dose (10 µM) SRB screen; assay type: cell-based, human; conditions: melanoma, 48 h
SK-MEL-5 = test: NCI single dose (10 µM) SRB screen; assay type: cell-based, human; conditions: melanoma, 48 h
UACC-257 = test: NCI single dose (10 µM) SRB screen; assay type: cell-based, human; conditions: melanoma, 48 h
UACC-62 = test: NCI single dose (10 µM) SRB screen; assay type: cell-based, human; conditions: melanoma, 48 h
IGROV1 = test: NCI single dose (10 µM) SRB screen; assay type: cell-based, human; conditions: ovarian cancer, 48 h
OVCAR-3 = test: NCI single dose (10 µM) SRB screen; assay type: cell-based, human; conditions: ovarian cancer, 48 h
OVCAR-4 = test: NCI single dose (10 µM) SRB screen; assay type: cell-based, human; conditions: ovarian cancer, 48 h
OVCAR-5 = test: NCI single dose (10 µM) SRB screen; assay type: cell-based, human; conditions: ovarian cancer, 48 h
OVCAR-8 = test: NCI single dose (10 µM) SRB screen; assay type: cell-based, human; conditions: ovarian cancer, 48 h
NCI/ADR-RES = test: NCI single dose (10 µM) SRB screen; assay type: cell-based, human; conditions: ovarian cancer, 48 h
786-0 = test: NCI single dose (10 µM) SRB screen; assay type: cell-based, human; conditions: renal cancer, 48 h
A498 = test: NCI single dose (10 µM) SRB screen; assay type: cell-based, human; conditions: renal cancer, 48 h
ACHN = test: NCI single dose (10 µM) SRB screen; assay type: cell-based, human; conditions: renal cancer, 48 h
CAKI-1 = test: NCI single dose (10 µM) SRB screen; assay type: cell-based, human; conditions: renal cancer, 48 h
RXF 393 = test: NCI single dose (10 µM) SRB screen; assay type: cell-based, human; conditions: renal cancer, 48 h
SN12C = test: NCI single dose (10 µM) SRB screen; assay type: cell-based, human; conditions: renal cancer, 48 h
TK-10 = test: NCI single dose (10 µM) SRB screen; assay type: cell-based, human; conditions: renal cancer, 48 h
UO-31 = test: NCI single dose (10 µM) SRB screen; assay type: cell-based, human; conditions: renal cancer, 48 h
PC-3 = test: NCI single dose (10 µM) SRB screen; assay type: cell-based, human; conditions: prostate cancer, 48 h
DU-145 = test: NCI single dose (10 µM) SRB screen; assay type: cell-based, human; conditions: prostate cancer, 48 h
MCF7 = test: NCI single dose (10 µM) SRB screen; assay type: cell-based, human; conditions: breast cancer, 48 h
MDA-MB-231 = test: NCI single dose (10 µM) SRB screen; assay type: cell-based, human; conditions: breast cancer, 48 h
HS578T = test: NCI single dose (10 µM) SRB screen; assay type: cell-based, human; conditions: breast cancer, 48 h
T-47D = test: NCI single dose (10 µM) SRB screen; assay type: cell-based, human; conditions: breast cancer, 48 h
MDA-MB-468 = test: NCI single dose (10 µM) SRB screen; assay type: cell-based, human; conditions: breast cancer, 48 h
NCI 60 cancer cell lines = test: NCI single dose (10 µM) SRB screen, mean over panel; assay type: cell-based, human; conditions: mean over 60 cell lines, 48 h
Escherichia coli = test: Agar well diffusion method; conditions: relative to ciprofloxacin
Candida albicans = test: Agar well diffusion method; conditions: relative to clotrimazole
Aspergillus flavus = test: Agar well diffusion method; conditions: relative to clotrimazole

CCOC(=O)C1=C(C)NC(C)=C(C(=O)OCc2ccccc2)C1c1cccc(C#N)c1 (racemic) [Compound 2l, (±)-3- Benzyl 5-ethyl 4-(3-cyanophenyl)-2,6-dimethyl-1,4-dihydropyridine-3,5-dicarboxylate]
GI% K-562 (K-562): 83%
GI% MOLT-4 (MOLT-4): 68%
GI% SR (SR): 78%
GI% EKVX (EKVX): 62%
GI% HOP-92 (HOP-92): 49%
GI% NCI-H226 (NCI-H226): 41%
GI% NCI-H23 (NCI-H23): 37%
GI% NCI-H322M (NCI-H322M): 30%
GI% NCI-H460 (NCI-H460): 77%
GI% NCI-H522 (NCI-H522): 90%
GI% COLO 205 (COLO 205): 65%
GI% HCC-2998 (HCC-2998): 29%
GI% HCT-116 (HCT-116): 86%
GI% HCT-15 (HCT-15): 77%
GI% HT29 (HT29): 88%
GI% KM12 (KM12): 74%
GI% SW-620 (SW-620): 70%
GI% SF-268 (SF-268): 42%
GI% SF-539 (SF-539): 76%
GI% SNB-19 (SNB-19): 58%
GI% U251 (U251): 58%
GI% LOX IMVI (LOX IMVI): 64%
GI% MALME-3M (MALME-3M): 62%
GI% M14 (M14): 85%
GI% SK-MEL-2 (SK-MEL-2): 75%
GI% SK-MEL-5 (SK-MEL-5): 45%
GI% UACC-257 (UACC-257): 44%
GI% UACC-62 (UACC-62): 66%
GI% IGROV1 (IGROV1): 57%
GI% OVCAR-3 (OVCAR-3): 76%
GI% OVCAR-4 (OVCAR-4): 28%
GI% OVCAR-5 (OVCAR-5): 38%
GI% OVCAR-8 (OVCAR-8): 51%
GI% NCI/ADR-RES (NCI/ADR-RES): 77%
GI% 786-0 (786-0): 63%
GI% A498 (A498): 104%
GI% ACHN (ACHN): 52%
GI% CAKI-1 (CAKI-1): 67%
GI% RXF 393 (RXF 393): 55%
GI% SN12C (SN12C): 63%
GI% TK-10 (TK-10): 16%
GI% UO-31 (UO-31): 56%
GI% PC-3 (PC-3): 66%
GI% DU-145 (DU-145): 42%
GI% MCF7 (MCF7): 78%
GI% MDA-MB-231 (MDA-MB-231): 47%
GI% HS578T (HS578T): 59%
GI% T-47D (T-47D): 72%
GI% MDA-MB-468 (MDA-MB-468): 84%
Mean GI% (NCI 60 cancer cell lines): 64%
% activity index, E. coli (Escherichia coli): – (Values below 25 are of limited value and not shown as they refer either to inactive or non-diffusing compounds)
% activity index, C. albicans (Candida albicans): – (Values below 25 are of limited value and not shown as they refer either to inactive or non-diffusing compounds)
% activity index, A. flavus (Aspergillus flavus): – (Values below 25 are of limited value and not shown as they refer either to inactive or non-diffusing compounds)
